Results from patent publication US12110294B2, “CD73 compounds” (Gilead Sciences, Inc., priority 2020, dated 2024).

target: T1, CD73 activity in MDA-MB-231-GFP cells (Homo sapiens, UniProt P21589); assay: MDA-MB-231 Cell Based CD73 Activity Assay (DMEM); conditions: 3000 cells per well, DMEM medium with 10% human plasma, overnight compound treatment, AMP 200 uM
T1 construct: endogenous in cells; host or cells: MDA-MB-231-GFP cells
T1 sequence (P21589 27-549): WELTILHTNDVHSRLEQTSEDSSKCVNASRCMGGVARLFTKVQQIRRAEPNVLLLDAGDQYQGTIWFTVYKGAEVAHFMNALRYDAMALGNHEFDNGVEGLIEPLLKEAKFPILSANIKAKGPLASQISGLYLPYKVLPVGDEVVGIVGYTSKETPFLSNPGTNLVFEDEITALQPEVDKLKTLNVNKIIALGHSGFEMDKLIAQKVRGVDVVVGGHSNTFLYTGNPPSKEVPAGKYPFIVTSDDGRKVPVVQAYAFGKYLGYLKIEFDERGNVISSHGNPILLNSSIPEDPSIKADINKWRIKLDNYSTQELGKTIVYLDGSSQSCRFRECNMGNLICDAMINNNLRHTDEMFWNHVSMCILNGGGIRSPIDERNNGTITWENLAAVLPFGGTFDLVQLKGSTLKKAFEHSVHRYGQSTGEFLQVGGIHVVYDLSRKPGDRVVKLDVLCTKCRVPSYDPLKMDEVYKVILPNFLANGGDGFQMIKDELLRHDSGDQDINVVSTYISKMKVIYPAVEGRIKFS
Procedure: MDA-MB-231 Cell Based CD73 Activity Assay (DMEM) MDA-MB-231-GFP cells were seeded in 384-well plates (Greiner 781946) at a density of 3000 cells per well in 50 μL of DMEM medium with 10% HP (human plasma). Cells were plated into assay plate with compounds pre-spotted, for an overnight compound treatment. 50 uL of 400 uM AMP (final concentration will be 200 uM) was added using Bio-tek dispenser. Plates were incubated for 100 mins. […] The samples were analyzed using Rapid fire.

Row | EC50 [nM] | Structure (SMILES)
1 | 60.5 | O=c1[nH]cc(-c2cc([C@H]3C[C@@H]3c3cncnc3)c3ncc(F)n3n2)c(=O)[nH]1 (racemic) [Example 179, 5-(3-fluoro-8-((1S,2S)-2-(pyrimidin-5-yl)cyclopropyl)imidazo[1,2-b]pyridazin-6-yl)pyrimidine-2,4(1H,3H)-dione]
2 | 4.67 | O=c1[nH]cc(-c2cc([C@H]3C[C@@H]3c3cccnc3)c3ncc(F)n3n2)c(=O)[nH]1 (racemic) [Example 180, 5-(3-fluoro-8-((1S,2S)-2-(pyridin-3-yl)cyclopropyl)imidazo[1,2-b]pyridazin-6-yl)pyrimidine-2,4(1H,3H)-dione]
3 | 6.42 | O=c1[nH]cc(-c2cc([C@H]3C[C@@H]3c3ccncc3)c3ncc(F)n3n2)c(=O)[nH]1 (racemic) [Example 181, 5-(3-fluoro-8-((1S,2S)-2-(pyridin-4-yl)cyclopropyl)imidazo[1,2-b]pyridazin-6-yl)pyrimidine-2,4(1H,3H)-dione]
4 | 10.4 | O=c1[nH]cc(-c2cc([C@H]3C[C@@H]3c3ccc(Cl)cc3)c3ncc(F)n3n2)c(=O)[nH]1 (racemic) [Example 182, 5-(8-((2S,2S)-2-(4-chlorophenyl)cyclopropyl)-3-fluoroimidazo[1,2-b]pyridazin-6-yl)pyrimidine-2,4(1H,3H)-dione]
5 | 23.9 | O=c1[nH]cc(-c2cc([C@H]3C[C@@H]3c3ccc(C(F)(F)F)cc3)c3ncc(F)n3n2)c(=O)[nH]1 (racemic) [Example 183, 5-(3-fluoro-8-((1S,2S)-2-(4-(trifluoromethyl)phenyl)cyclopropyl)imidazo[1,2-b]pyridazin-6-yl)pyrimidine-2,4(1H,3H)-dione]
6 | 9.45 | Cn1cc([C@H]2C[C@@H]2c2cc(-c3c[nH]c(=O)[nH]c3=O)nn3ccnc23)ccc1=O (racemic) [Example 184, 5-(8-((1S,2S)-2-(1-methyl-6-oxo-1,6-dihydropyridin-3-yl)cyclopropyl)imidazo[1,2-b]pyridazin-6-yl)pyrimidine-2,4(1H,3H)-dione]
7 | 0.72 | CC1(C)C(=O)N(CC(F)(F)F)c2cc([C@H]3C[C@@H]3c3cc(-c4c[nH]c(=O)[nH]c4=O)nn4c(Cl)cnc34)ccc21 (racemic) [Example 212, 5-[3-chloro-8-[(1S,2S)-2-[3,3-dimethyl-2-oxo-1-(2,2,2-trifluoroethyl)indolin-6-yl]cyclopropyl]imidazo[1,2-b]pyridazin-6-yl]-1H-pyrimidine-2,4-dione]
8 | 0.45 | O=c1[nH]cc(-c2cc([C@H]3C[C@@H]3c3ccc4c(F)nn(CC(F)(F)F)c4c3)c3ncc(Cl)n3n2)c(=O)[nH]1 (racemic) [Example 213, 5-[3-chloro-8-[(1S,2S)-2-[3-fluoro-1-(2,2,2-trifluoroethyl)indazol-6-yl]cyclopropyl]imidazo[1,2-b]pyridazin-6-yl]-1H-pyrimidine-2,4-dione]
9 | 2.78 | O=c1[nH]cc(-c2cc([C@H]3C[C@@H]3c3ccc4ncsc4c3)c3nccn3n2)c(=O)[nH]1 (racemic) [Example 276, 5-(8-((1S,2S)-2-(benzo[d]thiazol-6-yl)cyclopropyl)imidazo[1,2-b]pyridazin-6-yl)pyrimidine-2,4(1H,3H)-dione]
10 | 38.9 | O=c1[nH]cc(-c2cc([C@H]3C[C@@H]3c3ccc4c(c3)OC(F)(F)O4)c3ncc(F)n3n2)c(=O)[nH]1 (racemic) [Example 278, 5-(8-((2S,2S)-2-(2,2-difluorobenzo[d][1,3]dioxol-5-yl)cyclopropyl)-3-fluoroimidazo[1,2-b]pyridazin-6-yl)pyrimidine-2,4(1H,3H)-dione]
11 | 77.8 | O=c1[nH]cc(-c2cc([C@H]3C[C@@H]3c3ccc(OC(F)(F)F)cc3F)c3nccn3n2)c(=O)[nH]1 (racemic) [Example 280, 5-(8-((1S,2S)-2-(2-fluoro-4-(trifluoromethoxy)phenyl)cyclopropyl)imidazo[1,2-b]pyridazin-6-yl)pyrimidine-2,4(1H,3H)-dione]
12 | 8.23 | COC(=O)c1ccc([C@H]2C[C@@H]2c2cc(-c3c[nH]c(=O)[nH]c3=O)nn3ccnc23)cc1 (racemic) [Example 281, methyl 4-((2S,2S)-2-(6-(2,4-dioxo-1,2,3,4-tetrahydropyrimidin-5-yl)imidazo[1,2-b]pyridazin-8-yl)cyclopropyl)benzoate]
13 | 11.7 | COC(=O)c1cccc([C@H]2C[C@@H]2c2cc(-c3c[nH]c(=O)[nH]c3=O)nn3ccnc23)c1 (racemic) [Example 282, methyl 3-((2S,2S)-2-(6-(2,4-dioxo-1,2,3,4-tetrahydropyrimidin-5-yl)imidazo[1,2-b]pyridazin-8-yl)cyclopropyl)benzoate]
14 | 3.49 | NC(=O)c1cccc([C@H]2C[C@@H]2c2cc(-c3c[nH]c(=O)[nH]c3=O)nn3ccnc23)c1 (racemic) [Example 284, 3-((1S,2S)-2-(6-(2,4-dioxo-1,2,3,4-tetrahydropyrimidin-5-yl)imidazo[1,2-b]pyridazin-8-yl)cyclopropyl)benzamide]
15 | 2.99 | CNC(=O)c1ccc([C@H]2C[C@@H]2c2cc(-c3c[nH]c(=O)[nH]c3=O)nn3ccnc23)cc1 (racemic) [Example 285, 4-((2S,2S)-2-(6-(2,4-dioxo-1,2,3,4-tetrahydropyrimidin-5-yl)imidazo[1,2-b]pyridazin-8-yl)cyclopropyl)-N-methylbenzamide]
16 | 2.42 | CNC(=O)c1cccc([C@H]2C[C@@H]2c2cc(-c3c[nH]c(=O)[nH]c3=O)nn3ccnc23)c1 (racemic) [Example 286, 3-((2S,2S)-2-(6-(2,4-dioxo-1,2,3,4-tetrahydropyrimidin-5-yl)imidazo[1,2-b]pyridazin-8-yl)cyclopropyl)-N-methylbenzamide]
17 | 12.5 | CN(C)C(=O)c1cccc([C@H]2C[C@@H]2c2cc(-c3c[nH]c(=O)[nH]c3=O)nn3ccnc23)c1 (racemic) [Example 287, 3-((2S,2S)-2-(6-(2,4-dioxo-1,2,3,4-tetrahydropyrimidin-5-yl)imidazo[1,2-b]pyridazin-8-yl)cyclopropyl)-N,N-dimethylbenzamide]
18 | 35.7 | CN(C)C(=O)c1ccc([C@H]2C[C@@H]2c2cc(-c3c[nH]c(=O)[nH]c3=O)nn3ccnc23)cc1 (racemic) [Example 288, 4-((2S,2S)-2-(6-(2,4-dioxo-1,2,3,4-tetrahydropyrimidin-5-yl)imidazo[1,2-b]pyridazin-8-yl)cyclopropyl)-N,N-dimethylbenzamide]
19 | 7.24 | O=C(c1ccc([C@H]2C[C@@H]2c2cc(-c3c[nH]c(=O)[nH]c3=O)nn3ccnc23)cc1)N1CCC1 (racemic) [Example 289, 5-(8-((2S,2S)-2-(4-(azetidine-1-carbonyl)phenyl)cyclopropyl)imidazo[1,2-b]pyridazin-6-yl)pyrimidine-2,4(1H,3H)-dione]
20 | 9.64 | CC1CN(C(=O)c2ccc([C@H]3C[C@@H]3c3cc(-c4c[nH]c(=O)[nH]c4=O)nn4ccnc34)cc2)C1 (racemic) [Example 290, 5-(8-((2S,2S)-2-(4-(3-methylazetidine-1-carbonyl)phenyl)cyclopropyl)imidazo[1,2-b]pyridazin-6-yl)pyrimidine-2,4(1H,3H)-dione]
21 | 18.6 | O=C(c1ccc([C@H]2C[C@@H]2c2cc(-c3c[nH]c(=O)[nH]c3=O)nn3ccnc23)cc1)N1CC(C(F)(F)F)C1 (racemic) [Example 291, 5-(8-((1S,2S)-2-(4-(3-(trifluoromethyl)azetidine-1-carbonyl)phenyl)cyclopropyl)imidazo[1,2-b]pyridazin-6-yl)pyrimidine-2,4(1H,3H)-dione]
22 | 5.72 | O=C(c1ccc([C@H]2C[C@@H]2c2cc(-c3c[nH]c(=O)[nH]c3=O)nn3ccnc23)cc1)N1CC(F)(F)C1 (racemic) [Example 292, 5-(8-((1S,2S)-2-(4-(3,3-difluoroazetidine-1-carbonyl)phenyl)cyclopropyl)imidazo[1,2-b]pyridazin-6-yl)pyrimidine-2,4(1H,3H)-dione]
23 | 8.8 | CC1(C)CN(C(=O)c2ccc([C@H]3C[C@@H]3c3cc(-c4c[nH]c(=O)[nH]c4=O)nn4ccnc34)cc2)C1 (racemic) [Example 293, 5-(8-((2S,2S)-2-(4-(3,3-dimethylazetidine-1-carbonyl)phenyl)cyclopropyl)imidazo[1,2-b]pyridazin-6-yl)pyrimidine-2,4(1H,3H)-dione]
24 | 1.32 | O=C(c1cccc([C@H]2C[C@@H]2c2cc(-c3c[nH]c(=O)[nH]c3=O)nn3ccnc23)c1)N1CCC1 (racemic) [Example 294, 5-(8-((2S,2S)-2-(3-(azetidine-1-carbonyl)phenyl)cyclopropyl)imidazo[1,2-b]pyridazin-6-yl)pyrimidine-2,4(1H,3H)-dione]
25 | 1.97 | CC1CN(C(=O)c2cccc([C@H]3C[C@@H]3c3cc(-c4c[nH]c(=O)[nH]c4=O)nn4ccnc34)c2)C1 (racemic) [Example 295, 5-(8-((1S,2S)-2-(3-(3-methylazetidine-1-carbonyl)phenyl)cyclopropyl)imidazo[1,2-b]pyridazin-6-yl)pyrimidine-2,4(1H,3H)-dione]
